According to US20220241316A1, “25-HYDROXYCHOLESTEROL (25HC), CRYAB AGGREGATION INHIBITOR, IS A NOVEL SENOLYTIC” (Buck Institute for Research on Aging, priority 2019, published 2022):

Tests used:
[1] = tested on: senescent mDFs; experiment: Cell viability assay on NS and SEN mDFs treated with 25HC; type: cell-based, mouse; settings: treatment 72 hrs
Experimental: Panel A) Timeline for DMSO/Doxo treatment and early-time point timeline for 25HC treatment on NS and SEN cells. 25HC treatment was started immediately after removing DMSO/Doxo. Panel B) Cell viability assay was performed on NS and SEN cells treated with different concentrations of 25HC. 25HC treatment was done for 72 hrs. (Mean+/−SD, n=3, *p<0.05, **p<0.01 vs 0 uM by student's t-test).
Panel A) Timeline for DMSO/Doxo treatment and late-time point timeline for 25HC treatment on NS and SEN cells. 25HC treatment was started 7 days after removing DMSO/Doxo. Panel B) Cell viability assay was performed on NS and SEN cells treated with different concentrations of 25HC. 25HC treatment was done for 72 hrs. (Mean+/−SD, n=6, **p<0.01, ***p<0.001, **** p<0.0001, vs 0 uM by student's t-test).

[2] = molecular target: T1, CRYAB protein (Homo sapiens, UniProt P02511); experiment: Inhibition of CRYAB protein aggregation; settings: stated with reference to Example 1; no aggregation test described
T1 sequence (P02511 1-175): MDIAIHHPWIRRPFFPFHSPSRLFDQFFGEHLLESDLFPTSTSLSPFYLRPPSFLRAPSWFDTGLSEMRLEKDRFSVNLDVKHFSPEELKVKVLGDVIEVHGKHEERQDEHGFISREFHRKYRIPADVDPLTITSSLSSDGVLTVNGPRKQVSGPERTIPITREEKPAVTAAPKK

[3] = molecular target: T1, CRYAB protein; settings: from Makley et al. (2015) / Xu et al. (2017); cited from earlier work
[4] = tested on: senescent cells; experiment: Evaluation of senolytic effects of 25HC, oxysterols and 25HC analogs in cell culture; type: cell-based; settings: cell type not stated
Description: Genetic knockdown of this gene kills senescent cells.
There are some commercially available analogs of 25HC such as oxysterols (Griffiths et al. (2019) Biochem Soc Trans., 47: 517-526).

[5] = tested on: senescent FAPs; experiment: Cell viability assay on NS and SEN FAPs treated with 25HC; type: cell-based, mouse; settings: 25HC started immediately after removing DMSO/Doxo (early-time point); treatment total 5 days; normalized to 0 uM
Experimental: Panel A) Timeline for DMSO/Doxo treatment and early-time point timeline for 25HC treatment on NS and SEN cells. 25HC treatment was started immediately after removing DMSO/Doxo. Panel B) Cell viability assay was performed on NS and SEN cells treated with different concentrations of 25HC. 25HC treatment was done for total 5 days. The value was normalized to that of 0 uM. The average value of 0 μM is expressed as 100% (Mean+/−SE, n=3, **p<0.01 and ***p<0.001 by student's t-test vs NS).

## C[C@H](CCCC(C)(C)O)[C@H]1CC[C@H]2[C@@H]3CC=C4C[C@@H](O)CC[C@]4(C)[C@H]3CC[C@]12C [25HC, 25-hydroxycholesterol]
[1]; 25HC started 7 days after removing DMSO/Doxo
  Cell viability of NS and SEN mDFs, late-time point: specifically kills senescent mDFs at late-timepoint
[1]; 25HC started immediately after removing DMSO/Doxo
  Cell viability of NS and SEN mDFs, early-time point: specifically kills senescent mDFs at early-timepoint
[2]
  Inhibition of CRYAB protein aggregation (as asserted in the description): effective inhibitor of CRYAB protein aggregation
[3]
  Inhibition of CRYAB / CRYAB protein aggregation (literature): effective inhibitor of CRYAB
[4]
  Senolytic effect: novel senolytic agent
[5]
  Cell viability of NS and SEN FAPs: specifically kills senescent FAPs
